Each block holds one compound with its values, some of them ahead of it.
Tests used:
[1] = tested on: tubulin; test: In vitro % inhibition of tubulin polymerization (Table 12; absorbance at 340 nm, Vmax); assay type: biochemical
Description: A 96-well half-area clear flat-bottom microplate (Corning© #3697) is pre-heated in a plate reader (Cytation 3, BioTek) at 37° C. for 15 minutes prior to the start of each assay. Kinase buffer (80 mM PIPES pH 6.9, 2 mM MgCl2, 0.5 mM EGTA, 15% glycerol, 1 mM GTP) is prepared from stock solutions and placed on ice. Inhibitors of this application are prepared to 10 μM concentrations in buffer (80 mM PIPES pH 6.9, 2 mM MgCl2, 0.5 mM EGTA, 5% DMSO) from DMSO stock solutions. After the assay plate is pre-warmed, 10 μL of inhibitor or buffer control is added to selected wells. Every assay contained a kinase only negative control for normalization of data, and a known compound positive control. The assay plate is incubated at 37° C. for 3 minutes. During this time, a frozen aliquot of the kinase (10 mg/mL) in buffer (80 mM PIPES pH 6.9, 2 mM MgCl2, 0.5 mM EGTA) is defrosted by placing in a room temperature water bath. Once thawed, 200 μL of the kinase is mixed with 420 μL of the ice-cold kinase buffer (3 mg/mL kinase in 80 mM PIPES, pH 6.9, 2 mM MgCl2, 0.5 mM EGTA, 1 mM GTP, 10.2% glycerol). To a 96-well plate on ice, aliquots of 100 μL kinase is added to each well. From this plate, 90 μL of the kinase is immediately pipetted into all sample wells of the warmed assay plate using a multi-channel pipette. The assay plate is immediately put in the reader at 37° C. and shook for 5 s with orbital shaking at medium speed. The reader records the absorbance at 340 nm every 15 s for 30 min.
The resulting absorbance curves are normalized by subtracting each data point by the absorbance at time 0.

[2] = tested on: K562; test: In vitro IC50 against human cancer cells (Table 11), K562; assay type: cell-based; details: read-out: Human cancer cell lines (IC50, μM) K562
[3] = tested on: MOLM-13; test: In vitro IC50 against human cancer cells (Table 11), MOLM-13; assay type: cell-based; details: read-out: Human cancer cell lines (IC50, μM) MOLM-13
[4] = tested on: MV-4-11; test: In vitro IC50 against human cancer cells (Table 11), MV-4-11; assay type: cell-based; details: MV4-11, read-out: Human cancer cell lines (IC50, μM) MV-4-11
[5] = molecular target: BTK (Homo sapiens, UniProt Q06187); test: In vitro BTK inhibition, biochemical IC50 (no preincubation); details: Table 7
Description: IC50 Values (nM) for the Inhibition of BTK Activity
In vitro BTK and JAK3 inhibition studies are shown in Table 7 and Table 8 (no preincubation).

[6] = molecular target: FGFR1 (Homo sapiens, UniProt P11362); test: In vitro kinase inhibition studies (Table 9), FGFR1; assay type: biochemical
[7] = molecular target: FGFR4 (Homo sapiens, UniProt P22455); test: In vitro kinase inhibition studies (Table 9), FGFR4; assay type: biochemical
[8] = molecular target: T1, His-tagged BTK kinase domain (Homo sapiens, UniProt Q06187); test: Mass spectral analysis of tryptic digest of His-tagged BTK kinase domain (MSMS of modified peptides); assay type: binding; details: 10 μM compound, 45 min; for C481 labelled by test compound (tryptic digest peptide): cysteine 481
T1 construct: pET-28b(+)-BTK (402-655) vector; made in house; host or cells: E. coli BL21 (DE3) RILP
Description: A protein kinase that is inhibited by compound and/or pharmaceutically acceptable salt of the present disclosure may be subjected to mass spectral analysis to assess the formation of permanent, irreversible covalent adducts. […] Such methods identify permanent, irreversible covalent protein adducts by observing a mass peak that corresponds to the mass of a control sample plus the mass of an irreversible adduct.
The starter cultures were incubated with shaking at 37° C. until cloudy and used to inoculate 1 L of Super broth containing same concentrations of kanamycin and chloramphenicol, 10 mM MgSO4, 5 mM CaCl2), and 0.1% (w/v) glucose. The cultures were incubated under similar conditions to an OD600 of 0.6-0.8. Before induction with 0.5 mM IPTG, the temperature was reduced to 16° C. The cells were harvested by centrifugation following approximately 18 h and frozen in a −80° C. freezer until use.
Cells were thawed in lysis buffer (50 mM HEPES [pH 7.6], 300 mM NaCl, 10 mM MgCl2, 10% [v/v] glycerol, 0.1 mg/mL lysozyme, 50 μg/mL DNase I, and protease inhibitors). Cells were sonicated (30 s on, 60 s off) for 3 repeating cycles. The cell lysates were cleared by centrifugation at 4° C. […] This eluant was cleaved with Ulp1 protease and loaded onto a S200 Superdex FPLC column (GE healthcare) pre-equilibrated with 20 mM HEPES pH 7.4, 150 mM NaCl, and 10% [v/v] glycerol. Pure fractions of His-tagged BTK kinase domain, as judged by SDS-PAGE, were pooled and concentrated using Amicon 10 kDa cutoff concentrators and after aliquoting stored at −80 C until use.
After the incubation time, the reactions were quenched by acetone precipitation and the pellet was re-dissolved in 8 M Urea. The protein was then reduced (5 mM DTT), alkylated (15 mM iodoacetamide) and digested (1 μg trypsin at 37° C. for 4 hours). The digest was then stopped by addition of trifluoroacetic acid, and peptides were removed from gel band by sonicating with increasing amounts of acetonitrile (0%, 30%, & 60%). Peptides were then purified using C18 ziptips, spotted on the MALDI target plate with a-cyano-4-hydroxycinnamic acid as the desorption matrix (10 mg/ml in 0.1% TFA: Acetonitrile 50:50), and analyzed in reflectron mode.

[9] = molecular target: T2, BMX (Homo sapiens, UniProt P51813); test: In vitro kinase inhibition studies (Table 9), BMX; assay type: biochemical
T2 sequence (P51813 1-675): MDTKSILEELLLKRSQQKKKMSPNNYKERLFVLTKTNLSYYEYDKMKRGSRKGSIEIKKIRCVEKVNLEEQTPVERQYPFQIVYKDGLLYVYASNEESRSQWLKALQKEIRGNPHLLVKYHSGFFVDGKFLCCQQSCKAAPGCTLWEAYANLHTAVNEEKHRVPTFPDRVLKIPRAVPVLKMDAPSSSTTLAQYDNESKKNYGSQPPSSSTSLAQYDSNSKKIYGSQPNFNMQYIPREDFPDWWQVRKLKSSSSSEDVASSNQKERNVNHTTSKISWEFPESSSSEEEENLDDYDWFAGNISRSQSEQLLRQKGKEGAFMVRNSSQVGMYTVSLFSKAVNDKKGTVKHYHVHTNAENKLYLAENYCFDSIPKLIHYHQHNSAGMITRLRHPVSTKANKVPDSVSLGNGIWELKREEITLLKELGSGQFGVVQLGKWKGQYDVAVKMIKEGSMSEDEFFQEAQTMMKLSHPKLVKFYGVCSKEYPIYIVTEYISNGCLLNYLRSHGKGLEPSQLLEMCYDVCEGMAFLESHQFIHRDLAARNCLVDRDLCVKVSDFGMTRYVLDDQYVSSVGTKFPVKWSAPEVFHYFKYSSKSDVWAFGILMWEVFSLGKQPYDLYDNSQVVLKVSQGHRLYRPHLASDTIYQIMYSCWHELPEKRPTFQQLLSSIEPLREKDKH

[10] = tested on: RL cells; test: IC50 of Ibrutinib analogs against human cancer cells, RL cells (Table 14); assay type: cell-based; details: Homo sapiens, RL, Table 14; RL human non-Hodgkin's lymphoma B cell line; read-out: RL (IC50)
Description: 1×10^4 cells (NHF cells)/well are plated in 96-well assay plates in culture medium. […] After 24 hrs, test compounds and vehicle controls are added to appropriate wells so the final volume is 100p in each well. The cells are cultured for the desired test exposure period (72 hrs) at 37° C. and 5% CO2. The assay plates are removed from 37° C. incubator and 20 μl/well of CellTiter-Blue® Reagent is added. The plates are incubated using standard cell culture conditions for 1-4 hours and the plates are shaken for 10 seconds and record fluorescence at 560/590 nm. […] Therapeutic index=(IC50 human fibroblasts/IC50 […] )

[11] = 10 μM His-BTK KD, tryptic digest MSMS

T1 sequence (Q06187 402-655): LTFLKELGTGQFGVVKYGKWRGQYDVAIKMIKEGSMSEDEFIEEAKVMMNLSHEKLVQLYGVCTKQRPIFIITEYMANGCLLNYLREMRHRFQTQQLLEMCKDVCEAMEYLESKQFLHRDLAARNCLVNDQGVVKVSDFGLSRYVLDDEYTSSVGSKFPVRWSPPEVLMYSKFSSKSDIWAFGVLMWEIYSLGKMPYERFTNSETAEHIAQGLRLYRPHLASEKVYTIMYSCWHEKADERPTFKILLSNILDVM
Chain of FGFR1 (P11362 22-822, species assumed): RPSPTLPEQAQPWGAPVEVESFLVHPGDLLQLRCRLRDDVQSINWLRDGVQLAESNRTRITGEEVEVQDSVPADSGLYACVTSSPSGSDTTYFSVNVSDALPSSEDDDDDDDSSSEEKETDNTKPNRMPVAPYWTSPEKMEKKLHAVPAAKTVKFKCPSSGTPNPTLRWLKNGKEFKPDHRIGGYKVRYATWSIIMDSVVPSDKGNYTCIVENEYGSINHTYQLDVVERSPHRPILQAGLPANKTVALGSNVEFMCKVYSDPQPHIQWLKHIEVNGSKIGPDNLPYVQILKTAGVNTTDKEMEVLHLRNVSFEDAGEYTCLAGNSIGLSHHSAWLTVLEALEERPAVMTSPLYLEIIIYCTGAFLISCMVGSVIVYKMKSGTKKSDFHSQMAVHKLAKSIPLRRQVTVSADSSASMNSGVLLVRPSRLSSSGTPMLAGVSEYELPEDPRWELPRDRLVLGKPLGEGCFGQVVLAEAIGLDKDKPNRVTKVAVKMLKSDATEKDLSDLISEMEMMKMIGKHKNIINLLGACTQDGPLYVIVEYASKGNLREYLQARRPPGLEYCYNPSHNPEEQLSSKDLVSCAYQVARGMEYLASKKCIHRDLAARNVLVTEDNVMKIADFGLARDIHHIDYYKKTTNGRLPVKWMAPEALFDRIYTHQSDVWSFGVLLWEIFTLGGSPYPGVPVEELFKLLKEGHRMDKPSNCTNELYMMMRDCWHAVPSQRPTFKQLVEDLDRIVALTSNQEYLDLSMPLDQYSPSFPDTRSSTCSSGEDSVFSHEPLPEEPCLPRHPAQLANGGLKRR
Chain of FGFR4 (P22455 22-802, species assumed): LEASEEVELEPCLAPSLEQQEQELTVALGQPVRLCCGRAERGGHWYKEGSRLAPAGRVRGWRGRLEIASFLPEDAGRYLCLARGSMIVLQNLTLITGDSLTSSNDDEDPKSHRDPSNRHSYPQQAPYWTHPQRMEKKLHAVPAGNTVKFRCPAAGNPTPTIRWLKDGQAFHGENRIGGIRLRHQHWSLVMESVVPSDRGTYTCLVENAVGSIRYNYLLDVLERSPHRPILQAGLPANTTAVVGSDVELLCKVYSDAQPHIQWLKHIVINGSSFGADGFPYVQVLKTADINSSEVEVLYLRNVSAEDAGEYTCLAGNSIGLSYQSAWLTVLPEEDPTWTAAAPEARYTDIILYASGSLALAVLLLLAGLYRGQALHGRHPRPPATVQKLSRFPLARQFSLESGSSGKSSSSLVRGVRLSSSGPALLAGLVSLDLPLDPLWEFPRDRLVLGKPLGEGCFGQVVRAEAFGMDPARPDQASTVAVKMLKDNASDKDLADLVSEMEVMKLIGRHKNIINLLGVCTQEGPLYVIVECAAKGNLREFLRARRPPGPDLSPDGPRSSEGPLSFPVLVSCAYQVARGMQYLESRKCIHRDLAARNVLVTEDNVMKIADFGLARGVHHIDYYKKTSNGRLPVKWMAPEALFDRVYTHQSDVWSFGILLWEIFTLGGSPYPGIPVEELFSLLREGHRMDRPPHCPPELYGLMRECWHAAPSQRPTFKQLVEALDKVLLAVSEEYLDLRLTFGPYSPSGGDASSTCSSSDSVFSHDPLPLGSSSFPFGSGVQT
Chain of BTK (Q06187 whole entry, species assumed): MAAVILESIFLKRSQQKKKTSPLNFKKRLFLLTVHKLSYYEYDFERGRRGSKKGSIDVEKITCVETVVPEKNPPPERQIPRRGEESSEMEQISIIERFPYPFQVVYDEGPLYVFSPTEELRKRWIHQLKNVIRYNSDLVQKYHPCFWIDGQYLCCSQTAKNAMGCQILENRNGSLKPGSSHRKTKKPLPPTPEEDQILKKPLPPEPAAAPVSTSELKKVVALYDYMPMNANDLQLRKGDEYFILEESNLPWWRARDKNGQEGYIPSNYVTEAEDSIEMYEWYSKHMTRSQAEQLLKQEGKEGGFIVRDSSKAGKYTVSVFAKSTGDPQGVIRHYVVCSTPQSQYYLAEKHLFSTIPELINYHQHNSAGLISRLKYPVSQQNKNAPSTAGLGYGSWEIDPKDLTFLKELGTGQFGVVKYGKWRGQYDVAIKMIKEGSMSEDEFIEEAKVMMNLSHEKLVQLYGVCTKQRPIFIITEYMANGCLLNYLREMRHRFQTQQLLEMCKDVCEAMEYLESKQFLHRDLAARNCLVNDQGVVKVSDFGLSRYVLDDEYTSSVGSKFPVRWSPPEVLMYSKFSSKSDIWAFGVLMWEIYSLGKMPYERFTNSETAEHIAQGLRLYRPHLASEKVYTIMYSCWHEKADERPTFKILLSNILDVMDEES

SMILES: O=S(=O)(Nc1ccc(OCF)c(F)c1)c1c(F)c(F)c(F)c(F)c1F [Compound 4-6, 2,3,4,5,6-pentafluoro-N-(3-fluoro-4-(fluoromethoxy)phenyl)benzenesulfonamide]
% inhibition of tubulin polymerization [1]: B (B: 10-20%)
IC50 [2]: 0.1 to 10 µM
IC50 [3]: 0.1 to 10 µM
IC50 [4]: 0.1 to 10 µM

SMILES: COc1ccc(NS(=O)(=O)c2c(F)c(F)c(F)c(F)c2F)cc1F [Batabulin]
% inhibition of tubulin polymerization [1]: C (C > 20%)
IC50 [2]: ≤ 0.1 µM
IC50 [3]: ≤ 0.1 µM
IC50 [4]: ≤ 0.1 µM

SMILES: O=S(=O)(Nc1ccc(OC(F)F)c(F)c1)c1c(F)c(F)c(F)c(F)c1F [Compound 4-4, N-(4-(difluoromethoxy)-3-fluorophenyl)-2,3,4,5,6-pentafluorobenzenesulfonamide]
% inhibition of tubulin polymerization [1]: B (B: 10-20%)
IC50 [3]: 0.1 to 10 µM
IC50 [4]: 0.1 to 10 µM

SMILES: O=S(=O)(Nc1ccc(OC(F)(F)F)c(F)c1)c1c(F)c(F)c(F)c(F)c1F [Compound 4-1, 2,3,4,5,6-pentafluoro-N-(3-fluoro-4-(trifluoromethoxy)phenyl)benzenesulfonamide]
% inhibition of tubulin polymerization [1]: B (B: 10-20%)
IC50 [2]: 10 to 100 µM
IC50 [3]: 10 to 100 µM
IC50 [4]: 10 to 100 µM

SMILES: N#Cc1ccc(NS(=O)(=O)c2c(F)c(F)c(F)c(F)c2F)cc1F [Compound 4-5, N-(4-cyano-3-fluorophenyl)-2,3,4,5,6-pentafluorobenzenesulfonamide]
IC50 [4]: 10 to 100 µM

SMILES: O=S(=O)(Nc1ccc(O)c(F)c1)c1c(F)c(F)c(F)c(F)c1F [Compound 4-3, 2,3,4,5,6-pentafluoro-N-(3-fluoro-4-hydroxyphenyl)benzenesulfonamide]
% inhibition of tubulin polymerization [1]: A (A: < 10%)
IC50 [4]: 0.1 to 10 µM

SMILES: COc1ccc(N(C)S(=O)(=O)c2c(F)c(F)c(F)c(F)c2F)cc1F [Compound 4-12, 2,3,4,5,6-pentafluoro-N-(3-fluoro-4-methoxyphenyl)-N-methylbenzenesulfonamide]
IC50 [2]: 0.1 to 10 µM

SMILES: O=S(=O)(Nc1ccc(Oc2ccccc2)cc1)c1c(F)c(F)c(F)c(F)c1F [Compound 4-2, 2,3,4,5,6-pentafluoro-N-(4-phenoxyphenyl)benzenesulfonamide]
IC50 [3]: 10 to 100 µM
IC50 [4]: 10 to 100 µM

Second part, the compound after the results:

IC50 [5]: 0.1 to 10 nM
SMILES: Nc1ncnc2c1c(-c1ccc(Oc3ccccc3)cc1)nn2[C@@H]1CCN(S(=O)(=O)c2c(F)c(F)c(F)c(F)c2F)C1 [Compound 5-5, (R)-1-(1-((perfluorophenyl)sulfonyl)pyrrolidin-3-yl)-3-(4-phenoxyphenyl)-1H-pyrazolo[3,4-d]pyrimidin-4-amine]

IC50 [6]: 10 to 300 nM
IC50 [7]: 10 to 300 nM
SMILES: COCCOc1ccc(Nc2ncc(F)c(Nc3ccc(NS(=O)(=O)c4c(F)c(F)c(F)c(F)c4F)cc3)n2)cc1 [Compound 5-14, 2,3,4,5,6-pentafluoro-N-(4-((5-fluoro-2-((4-(2-methoxyethoxy)phenyl)amino)pyrimidin-4-yl)amino)phenyl)benzenesulfonamide]

IC50 [6]: > 2000 nM
IC50 [7]: > 2000 nM
amino acid of BTK modified by one equivalent of compound [8, 11]: Cys-481
observed mass of modified tryptic peptide [8, 11]: 3059.4 Da
C481 labelled by test compound (tryptic digest peptide) ([8]; 10 μM BTK KD): ✓
SMILES: COCCOc1ccc(Nc2ncc(F)c(NCCNS(=O)(=O)c3c(F)c(F)c(F)c(F)c3F)n2)cc1 [Compound 5-13, 2,3,4,5,6-pentafluoro-N-(2-((5-fluoro-2-((4-(2-methoxyethoxy)phenyl)amino)pyrimidin-4-yl)amino)ethyl)benzenesulfonamide]

IC50 [9]: 0.1 to 10 nM
SMILES: COCCOc1ccc(Nc2ncc(F)c(Nc3cccc(N(C)S(=O)(=O)c4c(F)c(F)c(F)c(F)c4F)c3)n2)cc1 [Compound 5-17, 2,3,4,5,6-pentafluoro-N-(3-((5-fluoro-2-((4-(2-methoxyethoxy)phenyl)amino)pyrimidin-4-yl)amino)phenyl)-N-methylbenzenesulfonamide]

IC50 [9]: 0.1 to 10 nM
SMILES: Nc1ncnc2c1c(-c1ccc(Oc3ccccc3)cc1)nn2[C@H]1CCCN(S(=O)(=O)c2c(F)c(F)c(F)c(F)c2F)C1 [Compound 5-2, (S)-1-(1-((perfluorophenyl)sulfonyl)piperidin-3-yl)-3-(4-phenoxyphenyl)-1H-pyrazolo[3,4-d]pyrimidin-4-amine]

IC50 [10]: 1640 nM
IC50 [9]: 10 to 300 nM
SMILES: Nc1ncnc2c1c(-c1ccc(Oc3ccccc3)cc1)nn2S(=O)(=O)c1c(F)c(F)c(F)c(F)c1F [Compound 5-19, 1-((perfluorophenyl)sulfonyl)-3-(4-phenoxyphenyl)-1H-pyrazolo[3,4-d]pyrimidin-4-amine]

C481 labelled by test compound (tryptic digest peptide) ([8]; 10 μM BTK KD): ✓
C527 labelled by test compound (tryptic digest peptide) ([8]; cysteine 527, 10 μM BTK KD): ✓
IC50 [9]: 0.1 to 10 nM
SMILES: Nc1ncnc2c1c(-c1ccc(Oc3ccccc3)cc1)nn2CCNS(=O)(=O)c1c(F)c(F)c(F)c(F)c1F [Compound 5-3, N-[2-[4-amino-3-(4-phenoxyphenyl)pyrazolo[3,4-d]pyrimidin-1-yl]ethyl]-2,3,4,5,6-pentafluoro-benzenesulfonamide]

Reference: patent US20230055961A1, “PENTAFLUOROBENZENESULFONAMIDE DERIVATIVES AND USES THEREOF” (Dunad Therapeutics Ltd., priority 2019, published 2023)
